Broadly, the TGI is the concentration giving total growth inhibition.

The source of these data is PubChem BioAssay (NCI).

What all share (assay): DTP human tumour cell line panel, 48 h
The test system of test [1] is HL-60(TB) leukemia.
In test [2] the test system is K-562 leukemia.
For test [3], the system named is SN12C renal.
In test [4] the test system is M14 melanoma.
The test system of test [5] is HCT-15 colon.
Test [6] concerns EKVX NSCLC.
The test system of test [7] is OVCAR-5 ovarian.
Test [8] has as its system SR leukemia.
Test [9] has as its system BT-549 breast.
For test [10], the system named is A549 NSCLC.
Test [11] relates to SF-295 CNS.

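All cell lines were grown in 96-well plates and treated with compound for 48 hours. TGI is the concentration that stops growth completely.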

Regarding `CC1=C(C(=O)OCCO[N+](=O)[O-])C(c2ccccc2C(F)(F)F)C(C(=O)OC(C)C)=C(C)N1` (stereo unspecified), the TGI in test [1] is greater than 100 µM; in [2], greater than 100 µM; in test [3], 36.8 µM; in test [4], 31.4 µM; in [5], 60.6 µM; in test [6], 97.9 µM. In addition, the TGI in test [7] is 37.3 µM; in [8], greater than 100 µM; in test [9], 26.9 µM; in test [10], greater than 100 µM; in test [11], 26.9 µM.
